These results are taken from PubChem BioAssay (NCI).

Structures are written as SMILES.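 These data come from cells grown in 96-well plates and exposed to compound for 48 hours at five concentrations. GI50 marks 50% less growth. Definition used: TGI = concentration required for complete inhibition of growth.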

Assay in all cases: DTP human tumour cell line panel, 48 h
The subject of assay [1] is PC-3 prostate.
Assay [2] has as its system SW-620 colon.
Assay [3] relates to MCF7 breast.
Assay [4] concerns CAKI-1 renal.
In assay [5] the test system is NCI-H460 lung.
For assay [6], the system named is A549 NSCLC.
Assay [7] has as its system DU-145 prostate.
The test system of assay [8] is NCI-H226 lung.
In assay [9] the test system is EKVX NSCLC.
For assay [10], the system named is HCT-116 colon.

As usually defined, the TGI is the concentration giving total growth inhibition. Low readings indicate more potent growth arrest, high ones less potent growth arrest. Consider `COC1CC(C)(NC(=O)C(F)(F)F)C2OC(c3ccccc3)OCC2O1` (stereo not given), for which the TGI in [1], in assay [2], in [3], in assay [4], in [5] and in assay [6] was > 100 µM throughout. For the same compound, the TGI in assay [7], in assay [8], in assay [9] and in assay [10] was > 100 µM each time.

As to `C/C(=N\Nc1nc2ccccc2s1)c1ccncn1`, the TGI in [1] is > 43 µM; in [2] it was > 100 µM; in [3], > 100 µM; in assay [4] it was 12.2 µM; in [5], 14.9 µM; in assay [6], > 35 µM. Moreover, the TGI in assay [7] was > 66.1 µM; in assay [8] it was 1.07 µM; in [9], 10.2 µM; in [10], 16.3 µM.

On to `CCCCCC[C@H]([C@H](C)O)n1cnc2c(N)ncnc21`, for which the TGI in assay [1], in assay [2], in assay [3], in assay [4], in [5] and in assay [6] was > 100 µM in each case. Moreover, the TGI in assay [7], in assay [8], in assay [9] and in assay [10] was > 100 µM each time.

Consider `CCOC(=O)c1cc(-c2ccc(OC)cc2)c([N+](=O)[O-])[nH]1`, for which the TGI in assay [1], in [2], in [3], in assay [4], in [5] and in [6] was > 10 µM throughout. Also, the TGI in assay [7], in [8], in assay [9] and in assay [10] was > 10 µM throughout.

As for `CN1CCN(C(=O)c2cn(Cc3cncn3Cc3ccc4c(c3)OCO4)cc2-c2cccc3ccccc23)CC1`, the TGI in assay [1] is > 86.3 µM; in assay [2] it was > 100 µM; in assay [3], > 83.6 µM; in assay [4], > 84.9 µM; in [5], > 100 µM; in assay [6], > 100 µM. Moreover, the TGI in [7], in assay [8], in assay [9] and in [10] was > 100 µM in each case.

Consider `O=C(CNc1ccccc1C(=O)O)Nn1cnc2ccc(S(=O)(=O)Nc3ccccc3C(=O)O)cc2c1=O`, for which the TGI in assay [1], in assay [2], in assay [3], in assay [4], in [5] and in [6] was > 100 µM in each case. Besides, the TGI in assay [7], in assay [8], in assay [9] and in assay [10] was > 100 µM throughout.

For `COC1(CC[C@@H](C)COC2OC(CO)C(O)C(O)C2O)OC2C[C@H]3[C@@H]4CC[C@H]5C[C@@H](OC6OC(CO)C(OC7OC(CO)C(O)C(O)C7O)C(O)C6OC6OC(C)C(O)C(O)C6O)[C@H](O)C[C@]5(C)[C@H]4CC[C@]3(C)C2[C@@H]1C` (stereo not given in full), the TGI worked out at 3.45 µM in assay [1]; 4.66 µM in assay [2]; 7.84 µM in assay [3]; 4.29 µM in assay [4]; 9.43 µM in assay [5]; 3.83 µM in assay [6]. The TGI in assay [7] amounted to 3.92 µM; in [8] it was 4.52 µM; in assay [9], 4.52 µM; in [10] it was 3.67 µM.

Broadly, the GI50 is the concentration at which growth is held to half of that of the control. Take `O=C1c2cc3c(cc2-c2c1c1cc(F)c(F)cc1c(=O)n2CCCn1ccnc1)OCO3`: the GI50 was 0.124 µM in assay [1]; < 0.01 µM in assay [2]; < 0.01 µM in [3]; < 0.01 µM in assay [4]; < 0.01 µM in assay [5]; 0.018 µM in [6]. The GI50 in [7] was < 0.01 µM; in [8], 0.0248 µM; in [9] it was 0.687 µM; in assay [10], < 0.01 µM. Moreover, the TGI was > 100 µM in assay [1]; > 100 µM in assay [2]; 1.39 µM in [3]; 1.42 µM in assay [4]; 0.199 µM in assay [5]; 1.32 µM in assay [6]. Further, the TGI is > 100 µM in [7], 0.115 µM in assay [8], > 100 µM in assay [9] and 10.8 µM in assay [10].

For the compound `CC(Nc1ccc(Cl)cc1)c1ccncc1` (stereo not given), the TGI in [1], in [2], in assay [3], in assay [4], in assay [5] and in [6] was > 100 µM in each case. Besides, the TGI in assay [7], in assay [8], in assay [9] and in assay [10] was > 100 µM each time.

As for `Cc1ccccc1NC(=O)O/N=C(\Cl)C(C)C`, the TGI in assay [1] was found to be 31 µM; in assay [2], 4.36 µM; in [3], 22.1 µM; in [4], 3.2 µM; in assay [5] it was 34.7 µM; in assay [6], 36.8 µM. The TGI in assay [7] is 31.5 µM; in [8] it was 30.7 µM; in assay [9], 4.94 µM; in assay [10], 4.79 µM.

As for `CCC1(c2ccc(N3C(=O)c4cccc5cc([N+](=O)[O-])cc(c45)C3=O)cc2)CCC(=O)NC1=O` (stereo not given), the TGI was > 100 µM in assay [1]; > 100 µM in assay [2]; > 100 µM in assay [3]; 50.9 µM in assay [4]; > 50 µM in assay [5]; > 100 µM in assay [6]. Further, the TGI in [7] was > 69.2 µM; in assay [8] it was 29 µM; in assay [9] it was > 70.5 µM; in assay [10], 21.6 µM.

As for `C/C(=C1\N=C(c2ccccc2)OC1=O)c1ccccc1`, the TGI in assay [1], in assay [2], in assay [3], in [4], in [5] and in assay [6] was > 100 µM in each case. Also, the TGI in assay [7], in assay [8], in [9] and in assay [10] was > 100 µM in each case.

With `Nc1[nH]c(=O)nc2c1ncn2C1OC(CO)C(O)C1O` (stereo not given), the TGI in [1] is 60.2 µM; in assay [2], > 100 µM; in assay [3] it was > 100 µM; in assay [4] it was > 100 µM; in assay [5], > 100 µM; in assay [6] it was > 100 µM. Also, the TGI in [7] was 66.3 µM; in [8], > 100 µM; in [9], > 100 µM; in [10], > 100 µM.

Regarding `C=C(NC(=O)C(=C)NC(=O)c1ccc2c(n1)-c1coc(n1)C(=C)NC(=O)C(=C)NC(=O)c1nc(oc1C)C(=C)NC(=O)C(C(C)(C)O)NC(=O)C(=C)NC(=O)c1coc(n1)/C(=C/C)NC(=O)[C@H]([C@@H](C)O)NC(=O)c1csc-2n1)C(N)=O` (stereo not given in full), the TGI in assay [1], in assay [2], in [3], in [4], in assay [5] and in [6] was > 87.5 µM in each case. For the same compound, the TGI in [7], in assay [8], in assay [9] and in assay [10] was > 87.5 µM in each case.

For the compound `CC(=O)NC1C(OCc2ccccc2)OC(CO)C(O)C1OC(C)C(=O)N[C@@H](C)C(=O)N[C@H](CCC(=O)NCCNCCNc1c2ccccc2nc2cccc([N+](=O)[O-])c12)C(N)=O` (stereo not given in full), the TGI was 0.891 µM in assay [1]; > 38.1 µM in assay [2]; 2.17 µM in [3]; 0.565 µM in [4]; 0.0486 µM in [5]; 1.71 µM in assay [6]. The TGI in assay [7] came out at 0.231 µM; in assay [8] it was 0.716 µM; in assay [9], 2.74 µM; in assay [10], 0.512 µM.

Take `CCc1nc(N)c2nc(-c3cccs3)oc2n1`: the TGI in [1], in assay [2], in assay [3], in assay [4], in [5] and in assay [6] was > 100 µM throughout. The TGI in assay [7], in assay [8], in assay [9] and in [10] was > 100 µM in each case.

Turning to `Clc1ccc2c(c1)N(CCCN1CCCC13CCCCC3)c1ccccc1S2`, the TGI is 20.6 µM in assay [1]; 40.7 µM in assay [2]; 32.3 µM in [3]; > 76.8 µM in assay [4]; 21.4 µM in [5]; 40.2 µM in assay [6]. The TGI in assay [7] was 34.2 µM; in assay [8], > 86.5 µM; in assay [9] it was > 44 µM; in [10], 30.7 µM.

`COc1cc2c(/C=C3/C(=O)Nc4ccccc43)c(Cl)n(Cc3ccc(Cl)cc3)c2cc1C`: the TGI was 16.5 µM in [1]; 17.5 µM in [2]; 31.8 µM in [3]; 0.834 µM in assay [4]; 2.3 µM in [5]; 10.6 µM in assay [6]. Further, the TGI in [7] came out at 1.07 µM; in assay [8], 1.79 µM; in assay [9], 44.9 µM; in assay [10], 0.824 µM.

Consider `O=P1(N(CCCl)CCCl)Oc2ccc(Cl)cc2C(C(Cl)(Cl)Cl)c2cc(Cl)ccc2O1` (stereo not given), for which the TGI is > 100 µM in assay [1]; > 100 µM in assay [2]; 73.9 µM in assay [3]; > 100 µM in assay [4]; 29.8 µM in assay [5]; > 100 µM in assay [6]. In addition, the TGI was > 100 µM in [7], 50.9 µM in assay [8], > 100 µM in [9] and 15.9 µM in [10].

With `CCOP(=O)(/C=C/n1cc(C)c(=O)[nH]c1=O)OCC`, the TGI in assay [1], in [2], in assay [3], in [4], in assay [5] and in [6] was > 100 µM in each case. Further, the TGI in assay [7], in assay [8], in assay [9] and in assay [10] was > 100 µM throughout.

For the compound `O=C1/C(=C/c2ccccc2)Oc2cc(O)ccc21`, the TGI in assay [1], in assay [2], in assay [3], in assay [4], in assay [5] and in assay [6] was > 100 µM throughout. Also, the TGI in assay [7], in assay [8], in [9] and in assay [10] was > 100 µM in each case.

On to `O=CCCCCCOCc1ccccc1`, for which the TGI in assay [1] was > 100 µM; in assay [2], > 100 µM; in [3], > 100 µM; in [4], > 66.8 µM; in assay [5], > 54.9 µM; in [6] it was > 100 µM. Besides, the TGI in [7] was > 100 µM; in assay [8] it was > 100 µM; in assay [9], > 100 µM; in assay [10] it was > 67.9 µM.

Take `Nc1c(C(=O)c2ccc(Cl)c(Cl)c2)[nH]c(NCc2ccccc2)c1C(=S)Nc1ccccc1`: the TGI in assay [1] is 30.5 µM; in assay [2], 10.1 µM; in assay [3], 12.3 µM; in assay [4] it was 32.2 µM; in assay [5] it was 20.7 µM; in assay [6] it was 23.3 µM. For the same compound, the TGI in [7] turned out to be 32.4 µM; in assay [8], 31.4 µM; in assay [9], 29.6 µM; in assay [10], 12.6 µM.

Consider `CC(C)(CO[C@H]1C[C@H]2CC[C@@]1(C)C2(C)C)[N+](=O)[O-]`, for which the TGI was 54.4 µM in [1]; 59.8 µM in assay [2]; 49.9 µM in assay [3]; 60.3 µM in assay [4]; 38.5 µM in assay [5]; > 100 µM in [6]. Further, the TGI was 49.2 µM in assay [7], 36.1 µM in [8], 46.2 µM in assay [9] and 29.1 µM in assay [10].

On to `COC(=N)C1(C#N)NC(c2ccsc2)C(C#N)(C#N)NC1c1ccsc1` (stereo not given), for which the TGI in assay [1], in assay [2], in assay [3], in assay [4], in assay [5] and in assay [6] was > 100 µM in each case. The TGI in [7], in assay [8], in assay [9] and in assay [10] was > 100 µM in each case.
